IC50 data for 1 molecule are collected here from patent US7045626B2, “Quinoline derivatives, process for preparing them and use for the treatment of diseases mediated by s-CD23” (SmithKline Beecham p.l.c., priority 2001, dated 2006).

The test system of experiment [1] is release of soluble CD23 from RPMI 8866 cell plasma membranes. Description: RPMI 8866 cell membrane CD23 cleavage activity assay. Type of experiment: biochemical, human. The following applies: RPMI 8866 plasma membranes, 37° C., sCD23 by EIA; read-out: IC50, inhibition of production of sCD23. The procedure:
Procedure 1: The ability of test compounds to inhibit the release of soluble CD23 was investigated by use of the following procedure.
RPMI 8866 Cell Membrane CD23 Cleavage Activity Assay:
Plasma membranes from RPMI 8866 cells, a human Epstein-Barr virus transformed B-cell line (Sarfati et al., Immunology 60 [1987] 539–547) expressing high levels of CD23 are purified using an aqueous extraction method. Cells resuspended in homogenization buffer (20 mM HEPES pH 7.4, 150 mM NaCl, 1.5 mM MgCl2, 1 mM DTT) are broken by N2 cavitation in a Parr bomb and the plasma membrane fraction mixed with other membranes is recovered by centrifugation at 10,000×g. […]
The fractionated membranes are incubated at 37° C. for times up to 4 hrs to produce fragments of CD23 which are separated from the membrane by filtration in 0.2 micron Durapore filter plates (Millipore) after quenching the assay with a non-selecitve MMP inhibitor, e.g. 5 uM Preparation 1 from WO 95/31457 ([4-(N-Hydroxyamino)-2-(R)-isobutyl-3-(S)-(2-thiophenethiomethyl)succinyl]-(S)-phenylalanine-N-methylamide sodium salt, prepared according to the procedure described in Example 11 of WO 90/05719). sCD23 released from the membrane is determined using the EIA kit from The Binding Site (Birmingham, UK) or a similar one utilising MHM6 anti-CD23 mAb [Rowe et al., Int. […]

For experiment [2], the target named is T1, human recombinant collagenase (Homo sapiens, UniProt P03956).
T1 construct: made in house; host or cells: E. coli
T1 sequence (P03956 100-469): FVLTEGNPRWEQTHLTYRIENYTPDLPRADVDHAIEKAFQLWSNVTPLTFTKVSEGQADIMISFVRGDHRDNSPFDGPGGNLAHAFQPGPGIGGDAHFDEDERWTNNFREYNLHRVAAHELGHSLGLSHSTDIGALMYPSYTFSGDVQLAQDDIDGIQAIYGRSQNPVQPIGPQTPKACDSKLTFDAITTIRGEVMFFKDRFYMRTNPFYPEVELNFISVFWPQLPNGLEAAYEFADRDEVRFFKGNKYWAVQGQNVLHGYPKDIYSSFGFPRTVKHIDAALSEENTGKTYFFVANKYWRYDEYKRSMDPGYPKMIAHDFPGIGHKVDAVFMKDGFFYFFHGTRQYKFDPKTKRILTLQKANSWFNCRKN
Put plainly: Collagenase inhibition assay. Type of experiment: biochemical. The following applies: 37° C., 18 h, 3H type 1 bovine collagen; read-out: IC50, collagenase inhibition (procedure 2). As for the experimental part:
Procedure 2: The ability of test compounds to inhibit matrix metalloproteases was investigated using the following procedures.
Collagenase Inhibition Assay:
The potency of compounds to act as inhibitors of collagenase was determined by the method of Cawston and Barrett (Anal. Biochem. 99, 340–345, 1979), hereby incorporated by reference, whereby a 1 mM solution of the inhibitor being tested or dilutions thereof, was incubated at 37° C. for 18 h with collagen and human recombinant collagenase, from synovial fibroblasts cloned, expressed and purified from E. Coli, (buffered with 150 mM Tris, pH 7.6, containing 15 mM calcium chloride, 0.05% Brij 35, 200 mM sodium chloride and 0.02% sodium azide). The collagen was acetylated ^3H type 1 bovine collagen prepared by the method of Cawston and Murphy (methods in Enzymology 80, 711,1981) The samples were centrifuged to sediment undigested collagen and an aliquot of the radioactive supernatant removed for assay on a scintillation counter as a measure of hydrolysis. The collagenase activity in the presence of 1 mM inhibitor, or dilution thereof, was compared to activity in a control devoid of inhibitor and the results reported as that concentration effecting 50% of the collagenase (IC50).

In another experiment the target is T2, MMP-13 (Homo sapiens, UniProt P45452).
T2 construct: purchased Calbiochem
Put plainly: General MMP inhibition assay (fluorescence quench). Type of experiment: biochemical. The following applies: inhibitor up to 100 uM. The procedure:
(§1) General MMP Inhibition Assays:
(§2) Inhibition of matrix metalloprotease activity was determined using a fluorescence quench assay with appropriate substrate. For example, MMP activity was determined using MMP activated using trypsin, according to Lark et al, Connective Tissue Res. 25, 52 (1990). The MMP is incubated at room temperature in a microtitre plate in a total volume of 100 ul, containing 0.15 M Tris Cl, 15 mM CaCl2, 0.2 M NaCl, pH 7.6 (assay buffer); inhibitor at concentrations up to 100 uM, with no more than 2% DMSO final concentration, 10 uM substrate (such as SDP-3815-PI for MMP-1, Peptides International). The MMP concentration is <10 nM, and determined empirically with the appropriate substrate to give at least a 20-fold increase in fluorescence emission in 30 min. Fluorescent excitation wavelength was 355 nm, emission wavelength 400–460 nm, and data points are collected to generate slope (change in fluorescence with time). Percent inhibition for each concentration is calculated from the slope at time zero, and IC50 values from the concentration dependence. MMP-1, 2, 3, 7, 9, 13, 14 may all be assayed in the same manner, using commercially available substrates reported to be effective for each enzyme. Enzymes were obtained from Calbiochem and activated using the same trypsin method.

The next experiment addresses T3, MMP-3 (Homo sapiens, UniProt P08254).
T3 construct: purchased Calbiochem
Description: General MMP inhibition assay (fluorescence quench). Type of experiment: biochemical. To be noted: inhibitor up to 100 uM. The procedure: as §1, §2

Some results are limits rather than exact numbers.

T3 sequence (P08254 100-477, species assumed): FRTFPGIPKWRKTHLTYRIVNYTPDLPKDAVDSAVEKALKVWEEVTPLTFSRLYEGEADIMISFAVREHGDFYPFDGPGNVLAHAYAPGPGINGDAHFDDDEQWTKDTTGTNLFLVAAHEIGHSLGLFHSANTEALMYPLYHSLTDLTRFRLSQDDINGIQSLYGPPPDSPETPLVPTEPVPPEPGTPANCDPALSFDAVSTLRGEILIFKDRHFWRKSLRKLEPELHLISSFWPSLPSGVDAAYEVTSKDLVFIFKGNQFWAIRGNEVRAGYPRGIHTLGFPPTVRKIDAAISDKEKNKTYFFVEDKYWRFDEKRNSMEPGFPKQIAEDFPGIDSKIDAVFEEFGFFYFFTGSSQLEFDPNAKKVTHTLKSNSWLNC

In the case of `O=CN(O)[C@H](CS(=O)(=O)Cc1cnc2ccccc2c1)[C@H]1CCCO1` [Example 1], the IC50 is 0.06 µM in experiment [1], 100 µM in experiment [2], 6 µM on MMP-13 and over 100 µM at MMP-3.
